Reference: article PMC11192437, “Molecular and structural basis of oligopeptide recognition by the Ami transporter system in pneumococci” (PLOS Pathogens, 2024)

How the values were obtained:
[1] = molecular target: AliC (residues 24–655), oligopeptide-binding lipoprotein of the Ami system, without the lipobox segment (Streptococcus pneumoniae); experiment: crystal structure; AliC in the open conformation, no peptide; 0.1 M Bis-Tris pH 6.5, 25% PEG3350; 2.38 Å; domain-swapped dimer
[2] = molecular target: AliC (residues 24–655), oligopeptide-binding lipoprotein of the Ami system, without the lipobox segment (Streptococcus pneumoniae); experiment: AUC; sedimentation velocity, 20 mM Tris–HCl pH 7.5, 20°C, 4.1 μM protein, c(s) distribution (SEDFIT)
AliD [3] = conditions: peptide derived from Prevotella species; cited from earlier work
AliD [4] = conditions: peptide derived from Prevotella species; cited from earlier work; remark: listed apart in the source
AliD [5] = experiment: Microscale thermophoresis (MST) peptide binding to AliD; set-up: species or system Streptococcus pneumoniae; conditions: 20 nM RED-NHS-labeled AliD, peptide 7.63x10^-6–0.125 mM in PBS, 25°C
Protocol: To investigate the conformational changes occurring in the Ami permease OBPs upon ligand binding, we synthesized specific peptides (Tables 1 and S2) previously reported to be substrates of these proteins. […] To verify specific binding of peptides to OBPs, binding of peptide 1 (FPPQSV), which is the natural substrate of AliD, and peptide 2 (AIQSEKARKHN) was measured to AliD by microscale thermophoresis (MST) (see methods). […] The crystal structure of the AliD:peptide 1 complex was obtained by co-crystallization (see Materials and Methods) at 2.18 Å resolution (Fig 3A).
Binding of peptides to heterologously expressed AliD was measured by microscale thermophoresis (MST). […] Analyzed peptides (1: FPPQSV and 2: AIQSEKARKHN) were diluted in PBS. […] Samples were loaded into standard capillaries (NanoTemper Technologies) and measured using the Monolith NT.115 machine (NanoTemper Technologies). […] Data of three independently conducted experiments were analyzed using the Mo.Affinity Analysis software version 2.3 from NanoTemper Technologies.
Supplementary file ppat.1011883.s017.tif: S6 Fig Peptide 1 structure in the AliD:peptide 1 complex. (A) Binding of peptide 1 and 2 to heterologously expressed AliD as analyzed by microscale thermophoresis (MST). […] Samples were measured using the Monolith NT.115 (NanoTemper Technologies) at 40% LED power and medium MST power at 25° C. […]

AliB = conditions: S2 Table; previously reported to bind AliB; ref 10 (table adapted from Nasher et al; 2018); cited from earlier work
Excerpt: Supplement ppat.1011883.s002.docx, table 1 | column: OBP

[6] = molecular target: AliD (residues 28–652), oligopeptide-binding lipoprotein of the Ami system, without the lipobox segment (Streptococcus pneumoniae); experiment: MST; 20 nM RED-NHS-labelled AliD and unlabelled peptides (7.63x10^-6–0.125 mM) both in solution, PBS, 25°C, 40% LED power, medium MST power, Monolith NT.115; three independent experiments

“AliC (residues 24–655), oligopeptide-binding lipoprotein of the Ami system, without the lipobox segment (natural protein)” gave a stoichiometry N [1] of 2 and a stoichiometry N [2] of 2.

In the case of “FPPQSV [Peptide 1, FPPQSV; Ribosome-associated GTPase EngA (Prevotella species)]”, the “Colonization when bound by AliD” value (AliD [3]) is listed as “enhanced colonization”, the “Gene expression change when bound by AliD” value (AliD [4]) is listed as “significant changes in gene expression” and the “Binding to AliD (in words)” value (AliD [5]) is listed as “concentration dependent binding”.

For “PIVGGHEGAGV [Peptide 3, …; NDMA-dependent alcohol dehydrogenase (multispecies)]”, the “Corresponding OBP” value (AliB) is given as “AliB”.

Work on Peptide 1 (FPPQSV) yielded a Kd [6] of 3.44 µM.

In the case of “VMVKGPGPGREST [Peptide 4, …; 30S ribosomal protein S11 (multispecies)]”, the “Corresponding OBP” value (AliB) is given as “AliB”.

AIQSEKARKHN [Peptide 2 (…)] gave a Kd [6] of 14.4 µM.
